Test results taken from patent publication US20230192774A1, “IMM[…] POLYOMAVIRUSES” (The Council of the Queensland Institute of Medical Research, priority 2019, published 2023).
Entries after “also recorded” stand apart in the source; their conditions may differ.

Experiments:
Assay type in all cases: cell-based, human
[1] = system: Peptide-specific T cells; assay: T cell cross-reactivity between JCV and BKV epitopes (intracellular cytokine assay); conditions: for BKV cross-reactivity: CD4^+ T cell responses to JCV peptides; for recognition of BKV and JCV peptide by T cells expanded with the epitope: expanded with one epitope, re-stimulated with JCV or BKV epitope, IFN-γ
Text: ICS FACS plots show the expression of IFN-γ in T cells expanded with either BKV epitope (SSGTQQWRGLARYFK (SEQ ID NO: 33)) or JCV epitope (RSGSQQWRGLSRYFK (SEQ ID NO: 12)). These primed T cells were stimulated using both BKV and JCV peptide showing that the T cells expanded with either of these epitopes recognize both BKV and JCV peptide sequences.
Peptide-specific T cells were expanded in vitro following stimulation with JCV epitope or BKV epitope and then re-stimulated with the corresponding […] peptide epitope (see Table 2) so as to observe any cross-reactive response between JCV and BKV epitopes. Specifically, PBMC from healthy volunteers were cultured with synthetic JCV peptide epitope RSGSQQWRGLSRYFK (SEQ ID NO: 12) or with synthetic BKV peptide epitope SSGTQQWRGLARYFK (SEQ ID NO: 33). Following initial expansion, each sample was re-stimulated (re-called) with either JCV epitope RSGSQQWRGLSRYFK (SEQ ID NO: 12) or BKV epitope SSGTQQWRGLARYFK (SEQ ID NO: 33) (wherein samples re-called with the same epitope act as internal controls). The reactivity of the expanded T cells was assessed using standard intracellular cytokine assays (see FIG. 4).

[2] = system: CD4^+ T cells; assay: intracellular cytokine assay of T cells expanded with synthetic JCV peptides; conditions: PBMC from healthy volunteers cultured 12-14 days with cytokines
Protocol: JCV-specific T cells were expanded in vitro following stimulation with pooled JCV epitopes. Specifically, PBMC from healthy volunteers were stimulated with synthetic JCV peptides (Table 1) for 1 hour and then cultured for 12-14 days in the presence of different cytokine combinations, including IL-2 (10 ng/ml), IL7 (10 ng/ml), IL12 (10 ng/ml) and/or IL15 (10 ng/ml). The JCV specificity of the expanded T cells was assessed using standard intracellular cytokine assays (Table 6).

[3] = system: HLA class II; assay: HLA class II restriction analysis with peptide-loaded LCLs, IFN-γ ICS assay; conditions: LCLs matching one single HLA allele of the donor loaded with peptide for 1 hour
Protocol: Specifically, the HLA class II-restriction of VDLHAFLSQAVFSNR (SEQ ID NO: 2) (LT29), FLSQAVFSNRTVASF (SEQ ID NO: 3) (LT30) and TVASFAVYTTKEKAQ (SEQ ID NO: 4) (LT32) peptides as HLA DRB1*10:01 is shown. Briefly, a panel of lymphoblastoid cells (LCLs) matching one single allele of the HLA type of the donor were chosen and loaded with respective peptide for 1 hour. The loaded LCLs were then used as stimulator cells in an IFN-γ ICS assay. The peptide, when presented by the MHC, elicits an IFN-γ response in JCV-specific T cells. […]

[4] = system: JCV-specific T cells; assay: two-dimensional peptide matrix epitope mapping, IFN-γ ICS assay; conditions: FACS, individual LTA overlapping peptides
Text: JCV-specific T cells expanded in vitro using the OPPs were further characterized by identifying specific T cell determinants. […] The response using the subpools were overlayed on a two dimensional matrix, thus showing the common individual peptides among the pools. […] Figure discloses SEQ ID NOS 2-4, respectively, in order of appearance.
In order to precisely map the HLA class I and class II-restricted T cell responses, individual overlapping peptides (15 aa long overlapping by 10 aa) were sourced for LTA, STA and VP1 proteins for T cell epitope mapping. A two-dimensional peptide matrix was used to distribute all individual peptides into small overlapping peptide pools. For example, in the case of Large T Antigen, the matrix is arranged such that each peptide of the pools (LTA1 to LTA24) occurs once on the ordinate. The T cell response for each pool was measured by intracellular cytokine-staining (ICS) IFN-γ assay (see FIG. 2A) and the data overlayed on a two dimensional matrix as follows.
Thus, the common individual peptides among pools that elicited a T cell response were identified, i.e., peptide 32 (P32) at the intersection of row LTA4 and column LTA16 and peptides P29 and P30 at the intersection of row LTA3 with columns LTA23 and LTA24.

| Sequence | BKV cross-reactivity [1] | %IFNγ^+CD4^+ with 0.1 μg/ml peptide [2] | %IFNγ^+CD4^+ with 1 μg/ml peptide [2] | HLA Restriction [3] | T cell response for individual peptide in the IFN-γ ICS assay [4] | recognition of BKV and JCV peptide by T cells expanded with the epitope [1] |
| --- | --- | --- | --- | --- | --- | --- |
| DPDMMRYVDKYGQLQ | Yes | 2.1% | 4.5% | DRB1*04:02 | – | – |
| EQYMAGVAWIHCLLP (listed as Betapolyomavirus secuhominis) | Yes | 2.5% | 2.9% | DRB1*04:01 &; also recorded: DRB1*03:01 | – | – |
| ERLNFELGVGIDQFM (listed as Betapolyomavirus secuhominis) | Yes | 2.2% | 6.32% | DRB1*15:01 | – | – |
| FLSQAVFSNRTVASF (listed as Betapolyomavirus secuhominis) | Yes | 34.1% | 38.39% | DRB1*10:01 | elicit a JCV-specific T cell response | – |
| GGHNILFFLTPHRHR (listed as Betapolyomavirus secuhominis) | Yes | 1.28% | 6.15% | DRB1*16:O1 | – | – |
| IDQFMVVFEDVKGTG (listed as Betapolyomavirus secuhominis) | Yes | 18.5% | 24.8% | DRB1*14:04/; also recorded: DQB1*05:03 | – | – |
| KMKRMNFLYKKMEQG (listed as Betapolyomavirus secuhominis) | Yes | 0.4% | 1.4% | DRB1*15:01 | – | – |
| LRSSPLVWIDCYCFD (listed as Betapolyomavirus secuhominis) | – | 0.4% | 1.81% | DRB1*15:01 | – | – |
| MDKVLNREESMELMD (listed as Betapolyomavirus secuhominis) [identical BKV homologue] | Yes | 1.65% | 5.26% | DRB1*01:01 | – | – |
| MTREEMLVERFNFLL (listed as Betapolyomavirus secuhominis) | Yes | 2% | 3.8% | DRB1*04:01 &; also recorded: DRB1*03:01 | – | – |
| NFLYKKMEQGVKVAH (listed as Betapolyomavirus secuhominis) | – | 0.2% | 1.2% | DRB1*15:01 | – | – |
| RKAYLKKCKELHPDK (listed as Betapolyomavirus secuhominis) | Yes | 9.2% | 10.4% | DRB1*13:01 | – | – |
| RNRKFLRSSPLVWID (listed as Betapolyomavirus secuhominis) | – | 0.6% | 3.03% | DRB1*15:01 | – | – |
| RSGSQQWRGLSRYFK | Yes | 7.8% | 8.4% | DRB1*11:01 | – | recognize both the BKV and JCV peptide sequence |
| RYWLFKGPIDSGKTT [identical BKV homologue] | Yes | 2.35% | 4.05% | DRB1*15:01 | – | – |
| SICQQAVDTVAAKQR (listed as Betapolyomavirus secuhominis) | Yes | 0.24% | 4.38% | DRB1*04:01 &; also recorded: DQB1*02:02 | – | – |
| SITEVECFLTPEMGD (listed as Betapolyomavirus secuhominis) | Yes | 2.8% | 2.71% | DRB1*01:01 &; also recorded: DQB1*05:01 | – | – |
| SKNQKSICQQAVDTV (listed as Betapolyomavirus secuhominis) [identical BKV homologue] | Yes | 0.41% | 2.31% | DRB1*04:01 &; also recorded: DQB1*02:02 | – | – |
| SSGTQQWRGLARYFK | – | – | – | – | – | recognize both the BKV and JCV peptide sequence |
| TCGNILMWEAVTLKT (listed as Betapolyomavirus secuhominis) | Yes | 2.65% | 4.83% | DRB1*15:01 | – | – |
| TVASFAVYTTKEKAQ (listed as Betapolyomavirus secuhominis) | Yes | 6.4% | 7.34% | DRB1*10:01 | elicit a JCV-specific T cell response | – |
| VDLHAFLSQAVFSNR (listed as Betapolyomavirus secuhominis) | Yes | 20.26% | 25.49% | DRB1*10:01 | elicit a JCV-specific T cell response | – |
